Target: T1, human mGlu5a receptor (Homo sapiens, UniProt P41594)
T1 construct: expressed in transfected cells
Assay: Intracellular Ca2+ mobilization assay (mGlu5 PAM)
Type: cell-based
Details: for EC50: HEK-293 cells stably transfected with human mGlu5a, L-glutamate added at EC20 after pre-incubation with test compound, read-out: EC50 (nM) mGlu5PAM; for Emax: maximal response in % of the maximal stimulatory effect obtained with saturating concentrations of L-glutamate, read-out: Eff. (%)
Experimental: A monoclonal HEK-293 cell line stably transfected with a cDNA encoding for the human mGlu5a receptor was generated; for the work with mGlu5 Positive Allosteric Modulators (PAMs), a cell line with low receptor expression levels and low constitutive receptor activity was selected to allow the differentiation of agonistic versus PAM activity. Cells were cultured according to standard protocols (Freshney, 2000) in Dulbecco's Modified Eagle Medium with high glucose supplemented with 1 mM glutamine, 10% (vol/vol) heat-inactivated bovine calf serum, Penicillin/Streptomycin, 50 μg/ml hygromycin and 15 μg/ml blasticidin (all cell culture reagents and antibiotics from Invitrogen, Basel, Switzerland).
About 24 hrs before an experiment, 5×10^4 cells/well were seeded in poly-D-lysine coated, black/clear-bottomed 96-well plates. The cells were loaded with 2.5 μM Fluo-4AM in loading buffer (1×HBSS, 20 mM HEPES) for 1 hr at 37° C. and washed five times with loading buffer. The cells were transferred into a Functional Drug Screening System 7000 (Hamamatsu, Paris, France), and 11 half logarithmic serial dilutions of test compound at 37° C. were added and the cells were incubated for 10-30 min, with on-line recording of fluorescence. Following this pre-incubation step, the agonist L-glutamate was added to the cells at a concentration corresponding to EC20 (typically around 80 μM) with on-line recording of fluorescence; in order to account for day-to-day variations in the responsiveness of cells, the EC20 of glutamate was determined immediately ahead of each experiment by recording of a full dose-response curve of glutamate.
Responses were measured as peak increase in fluorescence minus basal (i.e. fluorescence without addition of L-glutamate), normalized to the maximal stimulatory effect obtained with saturating concentrations of L-glutamate. Graphs were plotted with the % maximal stimulatory using XLfit, a curve fitting program that iteratively plots the data using Levenburg Marquardt algorithm. The single site competition analysis equation used was y=A+((B−A)/(1+((x/C)D))), where y is the % maximal stimulatory effect, A is the minimum y, B is the maximum y, C is the EC50, x is the log 10 of the concentration of the competing compound and D is the slope of the curve (the Hill Coefficient). From these curves the EC50 (concentration at which half maximal stimulation was achieved), the Hill coefficient as well as the maximal response in % of the maximal stimulatory effect obtained with saturating concentrations of L-glutamate were calculated.
A depression of the signal observed after addition of the EC20 concentration of L-glutamate was indicative of an inhibitory activity of the test compound.

T1 sequence (P41594 21-1180 isoform P41594-2 limits assumed): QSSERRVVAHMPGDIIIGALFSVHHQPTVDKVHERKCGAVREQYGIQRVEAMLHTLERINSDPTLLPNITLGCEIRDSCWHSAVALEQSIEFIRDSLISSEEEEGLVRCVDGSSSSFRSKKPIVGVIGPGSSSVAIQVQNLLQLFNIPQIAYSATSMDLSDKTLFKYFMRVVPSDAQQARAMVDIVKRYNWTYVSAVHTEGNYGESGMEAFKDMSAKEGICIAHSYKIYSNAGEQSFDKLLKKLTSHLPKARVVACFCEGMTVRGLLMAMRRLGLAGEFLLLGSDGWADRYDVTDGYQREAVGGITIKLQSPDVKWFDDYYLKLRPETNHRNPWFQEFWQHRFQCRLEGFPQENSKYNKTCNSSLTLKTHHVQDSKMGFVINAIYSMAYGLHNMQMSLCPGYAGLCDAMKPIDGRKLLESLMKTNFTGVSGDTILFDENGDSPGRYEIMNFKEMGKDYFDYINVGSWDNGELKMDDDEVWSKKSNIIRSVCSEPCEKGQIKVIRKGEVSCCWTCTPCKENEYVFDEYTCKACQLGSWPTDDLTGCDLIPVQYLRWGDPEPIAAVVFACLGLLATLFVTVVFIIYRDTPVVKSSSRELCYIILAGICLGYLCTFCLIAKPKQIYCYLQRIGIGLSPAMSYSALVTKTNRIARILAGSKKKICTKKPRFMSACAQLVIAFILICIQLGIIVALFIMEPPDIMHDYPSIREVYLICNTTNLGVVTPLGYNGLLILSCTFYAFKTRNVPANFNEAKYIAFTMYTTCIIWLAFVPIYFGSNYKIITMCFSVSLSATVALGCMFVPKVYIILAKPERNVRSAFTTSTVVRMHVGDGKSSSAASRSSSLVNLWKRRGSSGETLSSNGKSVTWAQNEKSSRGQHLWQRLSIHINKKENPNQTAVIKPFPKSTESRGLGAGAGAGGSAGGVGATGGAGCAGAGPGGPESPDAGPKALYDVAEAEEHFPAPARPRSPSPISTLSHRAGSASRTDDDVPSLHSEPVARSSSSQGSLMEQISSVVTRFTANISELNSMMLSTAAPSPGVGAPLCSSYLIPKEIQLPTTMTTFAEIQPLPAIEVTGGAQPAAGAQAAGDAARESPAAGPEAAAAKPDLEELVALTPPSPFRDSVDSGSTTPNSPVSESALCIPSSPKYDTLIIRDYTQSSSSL

SMILES | EC50 | Emax
CC1(C)CC(=O)N(c2ccc(C#Cc3ccccc3)nc2)C1 [Example 1, 4,4-Dimethyl-1-(6-phenylethynyl-pyridin-3-yl)-pyrrolidin-2-one] | 49 nM | 75%
CC1(C)CCN(c2ccc(C#Cc3ccccc3)nc2)C(=O)O1 [Example 2, 6,6-Dimethyl-3-(6-phenylethynyl-pyridin-3-yl)-[1,3]oxazinan-2-one] | 96 nM | 85%
CN1C(=O)N(c2ccc(C#Cc3ccccc3)nc2)CC1(C)C [Example 3, 3,4,4-Trimethyl-1-(6-phenylethynyl-pyridin-3-yl)-imidazolidin-2-one] | 15 nM | 45%
CN1C(=O)N(c2ccc(C#Cc3ccc(F)cc3)nc2)CC1(C)C [Example 4, 1-[6-(4-Fluoro-phenylethynyl)-pyridin-3-yl]-3,4,4-trimethyl-imidazolidin-2-one] | 50 nM | 44%
CN1C(=O)N(c2ccc(C#Cc3cccc(F)c3)nc2)CC1(C)C [Example 5, 1-[6-(3-Fluoro-phenylethynyl)-pyridin-3-yl]-3,4,4-trimethyl-imidazolidin-2-one] | 19 nM | 42%
CN1C(=O)N(c2ccc(C#Cc3cccnc3)nc2)CC1(C)C [Example 6, 3,4,4-Trimethyl-1-(6-pyridin-3-ylethynyl-pyridin-3-yl)-imidazolidin-2-one] | 241 nM | 36%
CC1(C)CC(=O)N(c2ccc(C#Cc3cccc(F)c3)nc2)C1 [Example 7, 1-[6-(3-Fluoro-phenylethynyl)-pyridin-3-yl]-4,4-dimethyl-pyrrolidin-2-one] | 39 nM | 62%
CC1(C)CC(=O)N(c2ccc(C#Cc3ccccc3)nc2)N1 [Example 8, 5,5-Dimethyl-2-(6-phenylethynyl-pyridin-3-yl)-pyrazolidin-3-one] | 62 nM | 56%
CC1(C)CC(=O)N(c2cnc(C#Cc3ccccc3)nc2)C1 [Example 9] | 36 nM | 39%
CCN1C(=O)N(c2cnc(C#Cc3ccccc3)nc2)CC1(C)C [Example 11, 3-Ethyl-4,4-dimethyl-1-(2-phenylethynyl-pyrimidin-5-yl)-imidazolidin-2-one] | 79 nM | 52%
CN1N(c2ccc(C#Cc3ccccc3)nc2)C(=O)CC1(C)C [Example 12, 1,5,5-Trimethyl-2-(6-phenylethynyl-pyridin-3-yl)-pyrazolidin-3-one] | 40 nM | 66%
CN1N(c2ccc(C#Cc3cccc(F)c3)nc2)C(=O)CC1(C)C [Example 13, 2-[6-(3-Fluoro-phenylethynyl)-pyridin-3-yl]-1,5,5-trimethyl-pyrazolidin-3-one] | 38 nM | 63%
CN1N(c2ccc(C#Cc3cc(F)ccc3F)nc2)C(=O)CC1(C)C [Example 14, 2-[6-(2,5-Difluoro-phenylethynyl)-pyridin-3-yl]-1,5,5-trimethyl-pyrazolidin-3-one] | 53 nM | 57%
CC1(C)CC(=O)N(c2ccc(C#Cc3cccc(F)c3)nc2)N1 [Example 15, 2-[6-(3-Fluoro-phenylethynyl)-pyridin-3-yl]-5,5-dimethyl-pyrazolidin-3-one] | 68 nM | 38%
CC1(C)CC(=O)N(c2ccc(C#Cc3cc(F)ccc3F)nc2)N1 [Example 16, 2-[6-(2,5-Difluoro-phenylethynyl)-pyridin-3-yl]-5,5-dimethyl-pyrazolidin-3-one] | 40 nM | 41%

Source: US8969338B2, “Ethynyl derivatives” (Hoffmann-La Roche Inc., priority 2011, dated 2015)
